In patent publication US12187723B2 (BRISTOL-MYERS SQUIBB COMPANY, priority 2019, dated 2025):

Assays:
[1] = biological target: T1, human TLR8 (Homo sapiens, UniProt Q9NR97); assay: TLR8 inhibition reporter assay (HEK-Blue SEAP); type: cell-based; conditions: HEK-Blue cells overexpressing human TLR8, R848 15.9 μM, 22 hour incubation
T1 construct: host or cells: HEK-Blue cells
T1 sequence (Q9NR97 27-1041): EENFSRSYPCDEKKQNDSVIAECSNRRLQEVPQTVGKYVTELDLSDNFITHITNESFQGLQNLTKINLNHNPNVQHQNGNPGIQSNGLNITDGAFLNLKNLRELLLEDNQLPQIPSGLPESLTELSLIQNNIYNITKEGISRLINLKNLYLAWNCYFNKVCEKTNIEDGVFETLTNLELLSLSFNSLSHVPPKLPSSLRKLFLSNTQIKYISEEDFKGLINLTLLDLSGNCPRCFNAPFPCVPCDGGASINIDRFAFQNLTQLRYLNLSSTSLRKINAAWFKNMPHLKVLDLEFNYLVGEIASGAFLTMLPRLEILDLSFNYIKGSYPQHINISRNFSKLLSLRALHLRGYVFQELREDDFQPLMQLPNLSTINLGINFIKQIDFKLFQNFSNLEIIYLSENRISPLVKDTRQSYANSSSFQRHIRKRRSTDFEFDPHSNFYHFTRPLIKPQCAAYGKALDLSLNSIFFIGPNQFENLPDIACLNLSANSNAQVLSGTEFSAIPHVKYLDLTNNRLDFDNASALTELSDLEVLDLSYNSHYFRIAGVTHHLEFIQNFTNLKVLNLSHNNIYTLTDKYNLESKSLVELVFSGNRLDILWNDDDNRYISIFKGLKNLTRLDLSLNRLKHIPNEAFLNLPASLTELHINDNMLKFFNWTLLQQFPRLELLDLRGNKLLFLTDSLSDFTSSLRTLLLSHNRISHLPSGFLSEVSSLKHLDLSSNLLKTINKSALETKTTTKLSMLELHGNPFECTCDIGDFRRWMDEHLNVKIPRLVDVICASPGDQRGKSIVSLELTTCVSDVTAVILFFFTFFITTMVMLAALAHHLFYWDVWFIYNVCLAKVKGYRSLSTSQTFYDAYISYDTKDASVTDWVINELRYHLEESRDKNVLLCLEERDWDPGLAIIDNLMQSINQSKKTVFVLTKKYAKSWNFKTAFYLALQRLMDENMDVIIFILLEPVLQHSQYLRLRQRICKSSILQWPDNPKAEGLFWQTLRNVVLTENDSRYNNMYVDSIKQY
Method in brief: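 Screening used HEK-Blue cells overexpressing one human TLR (7, 8 or 9) and an IFN-β minimal promoter–NF-κB/AP-1 SEAP construct. Stimulation lasted 22 h at 37 °C with receptor-specific agonist: gardiquimod, R848 or ODN2006 at 7.5 μM, 15.9 μM and 5 nM.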

[2] = biological target: T2, human TLR7 (Homo sapiens, UniProt Q9NYK1); assay: TLR7 inhibition reporter assay (HEK-Blue SEAP); type: cell-based; conditions: HEK-Blue cells overexpressing human TLR7, gardiquimod 7.5 μM, 22 hour incubation
T2 construct: host or cells: HEK-Blue cells
T2 sequence (Q9NYK1 27-1049): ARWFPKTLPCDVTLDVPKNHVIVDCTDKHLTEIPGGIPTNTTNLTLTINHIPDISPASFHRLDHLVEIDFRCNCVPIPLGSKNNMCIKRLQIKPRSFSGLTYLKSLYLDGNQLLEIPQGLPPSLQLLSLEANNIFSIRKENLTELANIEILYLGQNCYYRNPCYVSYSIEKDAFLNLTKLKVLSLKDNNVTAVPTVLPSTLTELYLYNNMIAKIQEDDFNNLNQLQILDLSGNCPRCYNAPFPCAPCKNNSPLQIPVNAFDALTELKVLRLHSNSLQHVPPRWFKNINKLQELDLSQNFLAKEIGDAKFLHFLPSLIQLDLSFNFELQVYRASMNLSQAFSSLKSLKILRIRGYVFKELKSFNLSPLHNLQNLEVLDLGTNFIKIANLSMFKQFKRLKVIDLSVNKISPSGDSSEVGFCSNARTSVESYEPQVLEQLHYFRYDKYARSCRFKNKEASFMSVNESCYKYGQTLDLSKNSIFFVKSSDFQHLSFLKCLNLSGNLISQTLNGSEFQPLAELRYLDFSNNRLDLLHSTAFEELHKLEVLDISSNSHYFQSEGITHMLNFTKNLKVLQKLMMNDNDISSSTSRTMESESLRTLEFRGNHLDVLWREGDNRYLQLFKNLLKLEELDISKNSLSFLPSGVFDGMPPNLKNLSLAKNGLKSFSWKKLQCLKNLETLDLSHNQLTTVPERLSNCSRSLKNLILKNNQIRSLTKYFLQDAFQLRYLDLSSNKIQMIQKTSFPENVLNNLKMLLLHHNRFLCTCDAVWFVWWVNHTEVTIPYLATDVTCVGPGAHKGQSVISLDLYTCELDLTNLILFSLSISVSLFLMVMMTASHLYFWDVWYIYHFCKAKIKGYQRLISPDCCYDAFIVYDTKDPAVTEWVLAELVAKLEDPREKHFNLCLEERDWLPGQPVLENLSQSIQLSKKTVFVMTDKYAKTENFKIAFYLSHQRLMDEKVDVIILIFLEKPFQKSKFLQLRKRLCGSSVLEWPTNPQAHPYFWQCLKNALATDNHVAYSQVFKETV
Method in brief: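 Dose-response testing from 0.05 nM to 50 μM final was done on reporter cells for 22 hours at 37° C. Secreted SEAP was then detected, and inhibition was calculated as percent reduction of the agonist-plus-DMSO signal compared with wells given a known inhibitor.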

Structure (SMILES)	IC50 [1] [nM]	IC50 [2] [nM]
Cc1c(-c2cc3[nH]c(=O)n([C@H]4CC[C@@H](NCC5CCOCC5)CC4)c3cc2C(C)C)cn2ncnc2c1C [Example 200, 5-(7,8-dimethyl-[1,2,4]triazolo[1,5-a]pyridin-6-yl)-6-isopropyl-1-((1s,4s)-4-(((tetrahydro-2H-pyran-4-yl)methyl)amino)cyclohexyl)-1,3-dihydro-2H-benzo[d]imidazol-2-one]	0.13	9.02
CCN[C@H]1CC[C@@H](n2c(=O)[nH]c3cc(-c4cn5ncnc5c(C)c4C)c(C(C)C)cc32)CC1 [Example 189, 5-(7,8-dimethyl-[1,2,4]triazolo[1,5-a]pyridin-6-yl)-1-((1s,4s)-4-(ethylamino)cyclohexyl)-6-isopropyl-1,3-dihydro-2H-benzo[d]imidazol-2-one]	3.11	9.82
CCN1CCC[C@@H](n2c(=O)[nH]c3cc(-c4cc(C)c5ncnn5c4)c(C)cc32)C1 [Example 16, (R)-1-(1-ethylpiperidin-3-yl)-6-methyl-5-(8-methyl-[1,2,4]triazolo[1,5-a]pyridin-6-yl)-1,3-dihydro-2H-benzo[d]imidazol-2-one]	31.4	17
CCc1cc2c(cc1-c1cc(OC)c3ncnn3c1)[nH]c(=O)n2[C@@H]1CCCN(CC(C)(C)C)C1 [Example 180, (R)-6-ethyl-5-(8-methoxy-[1,2,4]triazolo[1,5-a]pyridin-6-yl)-1-(1-neopentylpiperidin-3-yl)-1,3-dihydro-2H-benzo[d]imidazol-2-one]	4.29	1.42
COc1cc(-c2cc3[nH]c(=O)n([C@H]4CCCN(CCS(C)(=O)=O)C4)c3cc2C(C)C)cn2ncnc12 [Example 222, (S)-6-isopropyl-5-(8-methoxy-[1,2,4]triazolo[1,5-a]pyridin-6-yl)-1-(1-(2-(methylsulfonyl)ethyl)piperidin-3-yl)-1,3-dihydro-2H-benzo[d]imidazol-2-one]	53.2	138
CCCN1CCC[C@@H](n2c(=O)[nH]c3cc(-c4cc(OC)c5ncnn5c4)c(CC)cc32)C1 [Example 179, (R)-6-ethyl-5-(8-methoxy-[1,2,4]triazolo[1,5-a]pyridin-6-yl)-1-(1-propylpiperidin-3-yl)-1,3-dihydro-2H-benzo[d]imidazol-2-one]	2.48	1.06
COc1cc(-c2cc3[nH]c(=O)n([C@@H]4CCCN(C5CCOC5)C4)c3cc2C(C)C)cn2ncnc12 (stereo partly drawn) [Example 216, 6-isopropyl-5-(8-methoxy-[1,2,4]triazolo[1,5-a]pyridin-6-yl)-1-((3R)-1-(tetrahydrofuran-3-yl)piperidin-3-yl)-1,3-dihydro-2H-benzo[d]imidazol-2-one]	26.4	14.6
COc1cc(-c2cc3[nH]c(=O)n(C4CCC(N5CC(O)(C(F)(F)F)C5)CC4)c3cc2C(C)C)cn2ncnc12 (single isomer, unassigned) [Example 242, 1-(4-(3-hydroxy-3-(trifluoromethyl)azetidin-1-yl)cyclohexyl)-6-isopropyl-5-(8-methoxy-[1,2,4]triazolo[1,5-a]pyridin-6-yl)-1,3-dihydro-2H-benzo[d]imidazol-2-one]	1.12	10.4
Cc1cc2c(cc1-c1cc(C)c3ncnn3c1)[nH]c(=O)n2[C@H]1CCCN(C)C1 [Example 11, (S)-6-methyl-5-(8-methyl-[1,2,4]triazolo[1,5-a]pyridin-6-yl)-1-(1-methylpiperidin-3-yl)-1,3-dihydro-2H-benzo[d]imidazol-2-one]	143	276
COc1cc(-c2cc3[nH]c(=O)n(C4CCN(CCS(C)(=O)=O)CC4)c3cc2C(C)C)cn2ncnc12 [Example 224, 6-isopropyl-5-(8-methoxy-[1,2,4]triazolo[1,5-a]pyridin-6-yl)-1-(1-(2-(methylsulfonyl)ethyl)piperidin-4-yl)-1,3-dihydro-2H-benzo[d]imidazol-2-one]	25.5	82.4
